Tested on: ACTH from the pituitary gland
Assay: ACTH stimulation after oral mifepristone in persons with normal HPA function
Format: in vivo, human
Conditions: oral dose of 300-1500 mg; persons having normal hypothalamic-pituitary-adrenal axis (HPA) function
Method: GRA is administered at a dosage that is sufficient to increase ACTH in the pituitary gland by at least two fold in persons with normal HPA functions. In one embodiment, the GRA is mifepristone. In one embodiment, mifepristone is administered orally to the patient. […] In one embodiment, the GRA is administered at 11 pm the night before IPSS. Following the diagnosis of ACTH dependent Cushing's syndrome, they then undergo IPSS to identify the source of abnormal ACTH secretion, i.e., whether it is pituitary or ectopic. […] Another 0.018 microcatherter is inserted into the peripheral jugular vein. A 5,000 unit bolus of heparin is administered to the veins to prevent venous sinus thrombosis.

CC#C[C@]1(O)CC[C@H]2[C@@H]3CCC4=CC(=O)CCC4=C3[C@@H](c3ccc(N(C)C)cc3)C[C@@]21C [mifepristone, 17-β-hydrox-11-β-(4-dimethyl-aminophenyl)17-α-(1-propynyl)estra-4,9-dien-3-one] was tested, and the “increase ACTH from the pituitary gland” value was “at least two-fold”.

From patent US9829495B2, “Method for differentially diagnosing ACTH-dependent Cushing's syndrome” (Corcept Therapeutics, Inc., priority 2015, dated 2017)
